The source of these data is PMC10981727, “Design, synthesis and bioactivity study on oxygen-heterocyclic-based pyran analogues as effective P-glycoprotein-mediated multidrug resistance in MCF-7/ADR cell” (Scientific Reports, 2024).

Like-named read-outs stand apart in the source and are kept apart here.

In data set [1] the test system is SKOV-3. As to the kind of experiment: MTT viability assay, SKOV-3. The format is cell-based. As to conditions: for IC50: MTT, 24 h incubation, mean ± standard error; for times more potency than Doxorubicin, SKOV-3 / times more potency than Vinblastine, SKOV-3: ratio of IC50 values. On the procedure: (§1) Using concentrations ranging from 0 to 100 μM against PC-3, SKOV-3, and HeLa cancerogenic cell lines, target compounds 4a–l were assessed for their anticancer activities[53] and compared with the commercially available Vinblastine and Doxorubicin. […] The compounds with the greatest cytotoxic activity against the cancerous cell lines PC-3, SKOV-3, and HeLa were 4a–c, 4g, and 4h. […] We selected the cytotoxic active compounds 4a–c, 4g, and 4h to be evaluated against MCF-7/ADR cancerogenic and HFL-1 and WI-38 non-cancerogenic cell lines (Figs. 7, 8 and Table 1).
(§2) The tumor cell lines (PC-3, SKOV-3, and HeLa), resistant cell strains (MCF-7/ADR) and the normal cell lines, (HFL-1, WI-38) were obtained from the American Type Culture Collection (ATCC, Rockville, MD, USA).
(§3) The tumor cell lines were suspended in medium at concentration 5 × 10^4 cells well^−1 in Corning® 96-well tissue culture plates and then incubated for 24 h. The tested compounds with concentrations ranging from 0 to 100 μM were then added into 96-well plates (six replicates) to achieve six different concentrations for each compound. Six vehicle controls with media or 0.5% DMSO were run for each 96 well plate as a control. After incubating for 24 h, the numbers of viable cells were determined by the MTT test[53]. Briefly, the media was removed from the 96 well plates and replaced with 100 μl of fresh culture RPMI 1640 medium without phenol red then 10 μl of the 12 mM MTT stock solution (5 mg of MTT in 1 ml of PBS) to each well including the untreated controls. The 96-well plates were then incubated at 37 °C and 5% CO2 for 4 h. An 85-μl aliquot of the media was removed from the wells, and 50 μl of DMSO was added to each well and mixed thoroughly with the pipette and incubated at 37 °C for 10 min. Then, the optical density was measured at 590 nm with the microplate reader (Sunrise, TECAN, Inc, USA) to determine the number of viable cells and the percentage of viability was calculated as […] where ODt is the mean optical density of wells treated with the tested sample and ODc is the mean optical density of untreated cells. The relation between surviving cells and drug concentration is plotted to get the survival curve of each tumor cell line after treatment with the specified compound. The 50% inhibitory concentration (IC50), the concentration required to cause toxic effects in 50% of intact cells, was estimated from graphic plots of the dose response curve for each concentration.

For data set [2], the target named is T1, P-gp (Homo sapiens, UniProt P08183).
Method: (§4) The content of P-gp in the MCF-7/ADR cell lysates after incubation with varying conc. […] Absorption was recorded at 450 nm with a Spectramax Gemini fluorescence microplate reader (Molecular Devices, Sunnyvale, CA, USA)[78].
Data set [3] concerns HeLa. Kind of data set: MTT viability assay, HeLa. The format is cell-based. As to conditions: 24 h incubation, mean ± standard error. Here is the method:
as §1, §2, §3

Data set [4] deals with MCF-7/ADR cells. Kind of data set: Annexin V-FITC/PI apoptosis assay. The data set is classed as cell-based. To be noted: treated at IC50 value for 24 h; for necrosis (upper left quadrant, PI / Annexin V-FITC plot): control 1.56%; for total apoptosis percentage: equals sum of the three quadrants. Here is the method: P-gp inhibits apoptosis by preventing the release of cytochrome c which is mediated by the intrinsic mitochondrial pathway. Also, blocking cell cycle progression, inducing apoptosis or the combined effect of both are one of the indicated mechanisms for the cytotoxic effect of the chemotherapeutic drugs. Therefore, further assessment of the pivotal relationship between the newly synthesized MCF-7/ADR anticancer compounds and apoptosis was measured by the means of the Annexin V/PI double staining flow cytometric assay.
Apoptosis assay was performed with an Annexin V-FITC/PI double staining apoptosis detection kit (K101, Biovison) using a flow cytometer. […] Cells were harvested by the trypsinization, washed twice with 4 °C PBS, and re-suspended in the binding buffer. Subsequently, the Annexin V-FITC and Propidium iodide (PI) solutions were added to stain the cells before the analysis by the flow cytometry, where a minimum of 10,000 cells per sample were acquired. The Annexin V-FITC binding (FL1) and PI (FL2) were analyzed, using the Cell Quest Pro software (BD Biosciences).

For data set [5], the system named is PC-3. Kind of data set: MTT viability assay, PC-3. The data set is classed as cell-based. To be noted: MTT, 24 h incubation, mean ± standard error. On the procedure: as §1, §2, §3
The subject of data set [6] is MCF-7/ADR. As to the kind of experiment: MTT viability assay, resistant MCF-7/ADR. The data set is classed as cell-based. As to conditions: MTT, 24 h exposure, mean ± standard error. Here is the method:
as §1, §2, §3

Data set [7] concerns the target T1, P-gp. As to the kind of experiment: cell-based.
Method: Absorbance at 450 nm of each well was measured using Spectramax Gemini fluorescence microplate reader (Molecular Devices, Sunnyvale, CA, USA). The total content of Rhodamine in each sample was determined by comparison with a Rhodamine standard curve.
In data set [8] the test system is human diploid fibroblasts (WI-38). As to the kind of experiment: MTT viability assay, normal WI-38. As to conditions: normal cell line, 24 h, mean ± standard error. The format is cell-based. Here is the method: as §1, §2, §3
For data set [9], the system named is human fetal lung (HFL-1). As to the kind of experiment: MTT viability assay, normal HFL-1. The data set is classed as cell-based. To be noted: HFL1, normal cell line, 24 h, mean ± standard error. On the procedure: as §1, §2, §3
Data set [10] has as its system MCF-7/ADR cells. Kind of data set: Cell cycle assay (propidium iodide flow cytometry). The format is cell-based. As to conditions: treated at IC50 value for 24 h; for percentage of MCF-7/ADR cells in S phase (%DIP S): untreated control 29.61%. On the procedure:
The most powerful recently synthesized substances 4a–c on regulating cell cycle progression of MCF-7/ADR cells was analyzed by the flow cytometry, exploiting the FACS Calibers (Becton Dickinson). […] Cell cycle progression results of compounds 4a and 4b show cell cycle arrest at S phase with 41.17% and 34.62% respectively compared to 29.61% of the negative untreated control. […] Cell cycle arrest and distribution were done using Propidium Iodide Flow Cytometry Kit (ab139418, Abcam) as previously described. […] The DNA content in each cell nucleus was determined by a FACS Calibur flow cytometer (BD Biosciences, Franklin Lakes, NJ, USA).

The target in data set [11] is T1, P-gp. As to the kind of experiment: in vitro. To be noted: MCF-7/ADR cells (cell lysate).
Method: as §4

T1 sequence (P08183 whole entry): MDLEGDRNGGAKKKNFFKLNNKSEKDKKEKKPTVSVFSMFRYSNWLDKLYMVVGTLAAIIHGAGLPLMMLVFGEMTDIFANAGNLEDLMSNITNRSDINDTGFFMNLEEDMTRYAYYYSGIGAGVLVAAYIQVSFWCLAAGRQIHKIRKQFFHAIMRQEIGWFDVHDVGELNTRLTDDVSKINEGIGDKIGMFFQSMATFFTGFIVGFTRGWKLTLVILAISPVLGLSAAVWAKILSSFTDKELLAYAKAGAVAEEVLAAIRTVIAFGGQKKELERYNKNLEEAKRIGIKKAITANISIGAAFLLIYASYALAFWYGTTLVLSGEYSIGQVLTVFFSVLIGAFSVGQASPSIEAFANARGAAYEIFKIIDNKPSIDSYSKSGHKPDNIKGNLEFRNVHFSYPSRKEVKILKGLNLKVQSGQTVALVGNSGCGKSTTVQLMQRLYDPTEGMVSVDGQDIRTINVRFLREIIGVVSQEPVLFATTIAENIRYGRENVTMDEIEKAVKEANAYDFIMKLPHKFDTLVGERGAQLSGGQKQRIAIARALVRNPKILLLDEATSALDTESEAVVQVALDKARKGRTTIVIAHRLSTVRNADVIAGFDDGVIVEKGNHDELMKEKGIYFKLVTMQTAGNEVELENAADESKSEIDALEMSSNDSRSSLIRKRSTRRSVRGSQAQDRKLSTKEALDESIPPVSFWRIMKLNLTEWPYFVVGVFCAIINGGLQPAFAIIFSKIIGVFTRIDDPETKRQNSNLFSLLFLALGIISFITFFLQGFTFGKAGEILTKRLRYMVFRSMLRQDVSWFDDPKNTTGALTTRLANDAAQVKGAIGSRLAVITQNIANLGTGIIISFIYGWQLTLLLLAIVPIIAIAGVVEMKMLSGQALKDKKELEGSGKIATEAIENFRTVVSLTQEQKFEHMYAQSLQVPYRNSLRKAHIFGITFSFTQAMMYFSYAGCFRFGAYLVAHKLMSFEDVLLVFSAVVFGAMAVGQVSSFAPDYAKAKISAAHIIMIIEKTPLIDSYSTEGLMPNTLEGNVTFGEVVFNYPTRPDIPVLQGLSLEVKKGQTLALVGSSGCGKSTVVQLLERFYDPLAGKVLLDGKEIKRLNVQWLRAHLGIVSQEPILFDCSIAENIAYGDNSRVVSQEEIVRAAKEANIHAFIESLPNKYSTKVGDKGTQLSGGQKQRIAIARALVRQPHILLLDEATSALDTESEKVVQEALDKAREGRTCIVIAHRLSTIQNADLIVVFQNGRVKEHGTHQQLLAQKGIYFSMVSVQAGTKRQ

Doxorubicin [reference compound]: the 50% inhibitory concentration (IC50) in data set [1] turned out to be 1.1 ± 0.2 µM; in data set [2] it was 50.9 µM; in data set [3] it was 1.5 ± 0.3 µM; in data set [5] it was 1.3 ± 0.3 µM; in data set [6], 18.6 ± 0.2 µM. The “necrosis (upper left quadrant, PI / Annexin V-FITC plot)” value in data set [4] was found to be 3.33%. The total apoptosis percentage in data set [4] came out at 29.59%.
On to `N#CC1=C(N)Oc2ccc3ccc(O)cc3c2C1c1cccc(Cl)c1` (centres unmarked) [4c, 3-Amino-1-(3-chlorophenyl)-9-hydroxy-1H-benzo[f]chromene-2-carbonitrile], for which the melting point was 260 to 261 °C. This molecule yielded an IC50 in [7] of 21.5 µM. Moreover, half-maximal inhibition in data set [1] (Homo sapiens, SK-OV-3) (IC50) required 0.8 ± 0.1 µM. Moreover, in data set [1], the “times more potency than Doxorubicin, SKOV-3” value turned out to be 1.4 times and the “times more potency than Vinblastine, SKOV-3” value was found to be 4 times. In data set [8], this molecule returned an IC50 of 58.2 ± 1.1 µM. Also, the IC50 in data set [9] is 56.5 ± 1.2 µM. Moreover, the “percentage of MCF-7/ADR cells in G2/M phase (%DIP G2/M)” value in data set [10] (untreated control 15.01%) is reported as 29.54%. This molecule returned an IC50 in data set [3] (Homo sapiens, HeLa) of 2.1 ± 0.2 µM. In data set [11], this molecule gave an IC50 at 48 h of 27.3 µM. For the same molecule, in data set [4], the total apoptosis percentage was 36.17%. In data set [5] (Homo sapiens, PC-3), this molecule yielded an IC50 of 2.3 ± 2.2 µM. In data set [6] (Homo sapiens, NCI/ADR-RES), the IC50 was found to be 10.7 ± 0.3 µM.
As to `N#CC1=C(N)Oc2ccc3ccc(O)cc3c2C1c1ccccc1Cl` (centres unmarked) [4b, 3-Amino-1-(2-chlorophenyl)-9-hydroxy-1H-benzo[f]chromene-2-carbonitrile], the melting point was in the range of 262 to 263 °C. It took 13.3 µM to reach half-maximal inhibition in data set [7] (IC50). This molecule had an IC50 in data set [1] (Homo sapiens, SK-OV-3) of 0.7 ± 0.2 µM. Besides, in [1], the “times more potency than Doxorubicin, SKOV-3” value came out at 1.6 times and the “times more potency than Vinblastine, SKOV-3” value is recorded as 4.6 times. The same molecule yielded a concentration for half-maximal inhibition (IC50) in data set [8] of 61.1 ± 0.1 µM. Further, the concentration for half-maximal inhibition (IC50) in [9] came to 72 ± 0.2 µM. For the same molecule, the “percentage of MCF-7/ADR cells in S phase (%DIP S)” value in data set [10] came out at 34.62%. In addition, it took 2.4 ± 0.2 µM to reach half-maximal inhibition in data set [3] (Homo sapiens, HeLa) (IC50). Also, the IC50 at 48 h in data set [11] worked out at 15.4 µM. The molecule further had a total apoptosis percentage in [4] of 43.51%. For the same molecule, the IC50 in [5] (Homo sapiens, PC-3) came out at 3.3 ± 0.5 µM. The molecule also yielded a concentration for half-maximal inhibition (IC50) in data set [6] (Homo sapiens, NCI/ADR-RES) of 5 ± 0.1 µM.
`N#CC1=C(N)Oc2ccc3ccc(O)cc3c2C1c1ccc(F)cc1` (centres unmarked) [4a, 3-Amino-1-(4-fluorophenyl)-9-hydroxy-1H-benzo[f]chromene-2-carbonitrile] had a melting point of 272 °C. The molecule further displayed a 50% inhibitory concentration (IC50) in [7] of 30.9 µM. The IC50 in data set [1] (Homo sapiens, SK-OV-3) worked out at 0.6 ± 0.2 µM. Further, in data set [1], the “times more potency than Doxorubicin, SKOV-3” value is on record as 1.8 times and the “times more potency than Vinblastine, SKOV-3” value came to 5.3 times. Half-maximal inhibition in data set [8] (IC50) was put at 83.7 ± 1.1 µM. This molecule displayed an IC50 in data set [9] of 69.8 ± 0.3 µM. In addition, in data set [10], the “percentage of MCF-7/ADR cells in S phase (%DIP S)” value is 41.17%. Besides, the IC50 in data set [3] (Homo sapiens, HeLa) was 1.5 ± 0.3 µM. In [11], the IC50 at 48 h amounted to 34.7 µM. For the same molecule, in data set [4], the “necrosis (upper left quadrant, PI / Annexin V-FITC plot)” value is 16.42% and the total apoptosis percentage amounted to 31.98%. This molecule registered a half-inhibitory concentration (IC50) in data set [5] (Homo sapiens, PC-3) of 1.8 ± 0.3 µM. The same molecule came in with a 50% inhibitory concentration (IC50) in [6] (Homo sapiens, NCI/ADR-RES) of 9.5 ± 0.3 µM.
